In ChEMBL document CHEMBL1130671, “beta Gal(1-->S-4)beta GlcNac--OR: a galactosidase-stable substrate for alpha(1-->3)fucosyltransferase” (Bioorg Med Chem Lett, 1998):
Active and inactive are the calls of the source. The rule behind the calls is not given here.

Columns and labels:
[1] = species on record: Homo sapiens; test: Potency against purified human milk alpha(1,3/4) fucosyltransferase; IA inactive
[2] = species on record: Homo sapiens; test: Kinetic constant for purified human milk alpha(1,3/4) fucosyltransferase

Potency [1] | Km [2] [µM] | Compound
inactive |  | COC(=O)CCCCCCCCOC1OC(CO)C(OC2SC(CO)C(O)C(O)C2O)C(O)C1NC(C)=O (configuration not stated)
 | 230 | COC(=O)CCCCCCCCOC1OC(CO)C(SC2OC(CO)C(O)C(O)C2O)C(O)C1NC(C)=O (configuration not stated)
